Test results published in patent US11566007B2, “Ras inhibitors” (Revolution Medicines, Inc., priority 2019, dated 2023).

How the values were obtained:
[1] = molecular target: NRAS WT (Homo sapiens (Human), UniProt P01111+P62937); experiment: Ras-Raf (BRAF RBD) disruption / FRET / MOA assay, NRAS WT; type: biochemical; details: read-out: IC50* NRAS WT FRET data
In short: (§1)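 TR-FRET disruption of nucleotide-loaded Ras binding to BRAF RBD via compound-driven ternary complex with cyclophilin A. Compound as 10-point 3-fold series from 30 μM final, 3 h at 25° C, then anti-His Eu-W1024 (10 nM) and anti-GST allophycocyanin (50 nM) for 1.5 h. IC50 from decreased FRET ratio versus DMSO.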

[2] = test system: NCI-H358 cells (K-Ras G12C); experiment: Potency assay: pERK in NCI-H358 cells; type: cell-based, human; details: Homo sapiens, NCI-H358; H358 KRAS G12C; read-out: pERK EC50
In short: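 4 h cpd, 37 °C; 10-pt 3-fold series, 10 mM DMSO top stock, duplicates. Readout pERK: AlphaLISA SureFire Ultra or In-Cell Western (IR-800CW secondary, DRAQ5 DNA stain). IC50, 4-PL fit vs log conc.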

[3] = molecular target: KRAS G13D (Homo sapiens (Human), UniProt P01116+P62937, G13D); experiment: Ras-Raf (BRAF RBD) disruption / FRET / MOA assay, KRAS G13D; type: biochemical; details: read-out: IC50* KRAS G13D FRET data
In short: (§2)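 Ras:RAF disruption was scored as a fall in TR-FRET ratio relative to DMSO. Compound ranged in 3-fold steps over 10 points from 30 μM final; incubation ran 3 h at 25° C, detection antibodies a further 1.5 h. Reported as IC50.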

[4] = molecular target: KRAS Q61H (Homo sapiens (Human), UniProt P01116+P62937, Q61H); experiment: Ras-Raf (BRAF RBD) disruption / FRET / MOA assay, KRAS Q61H; type: biochemical; details: Ras-Raf disruption/FRET/MOA assay; class symbols; read-out: KRAS Q61H FRET data IC50
In short: as §1

[5] = molecular target: NRAS G12C (Homo sapiens (Human), UniProt P01111+P62937, G12C); experiment: Ras-Raf (BRAF RBD) disruption / FRET / MOA assay, NRAS G12C; type: biochemical; details: read-out: IC50* NRAS G12C FRET data
In short: as §2

[6] = molecular target: K-Ras G13C (Homo sapiens (Human), UniProt P01116+P62937, G13C); experiment: Ras-Raf (BRAF RBD) disruption / FRET / MOA assay, KRAS G13C; type: biochemical; details: KRAS G13C; Ras-Raf disruption/FRET/MOA assay; read-out: IC50* KRAS G13C FRET data
In short: as §2

[7] = molecular target: KRAS G12V (Homo sapiens (Human), UniProt P01116+P62937, G12V); experiment: Ras-Raf (BRAF RBD) disruption / FRET / MOA assay, KRAS G12V; type: biochemical; details: read-out: IC50* KRAS G12V FRET data
In short: as §2

NRAS WT, sequence (P01111 whole entry): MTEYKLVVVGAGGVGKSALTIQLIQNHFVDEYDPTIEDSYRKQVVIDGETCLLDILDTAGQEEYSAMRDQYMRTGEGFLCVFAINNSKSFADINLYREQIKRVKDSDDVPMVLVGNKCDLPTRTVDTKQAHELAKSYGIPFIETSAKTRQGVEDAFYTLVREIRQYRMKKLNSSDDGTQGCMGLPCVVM
NRAS WT, sequence (P62937 whole entry): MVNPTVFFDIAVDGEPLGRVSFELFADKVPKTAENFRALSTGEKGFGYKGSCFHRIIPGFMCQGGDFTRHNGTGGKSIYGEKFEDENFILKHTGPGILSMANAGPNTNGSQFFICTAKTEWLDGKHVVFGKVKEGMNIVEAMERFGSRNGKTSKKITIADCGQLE
K-Ras G13C, sequence (P01116-2 other isoform, or with tags, fused parts or gaps G13C): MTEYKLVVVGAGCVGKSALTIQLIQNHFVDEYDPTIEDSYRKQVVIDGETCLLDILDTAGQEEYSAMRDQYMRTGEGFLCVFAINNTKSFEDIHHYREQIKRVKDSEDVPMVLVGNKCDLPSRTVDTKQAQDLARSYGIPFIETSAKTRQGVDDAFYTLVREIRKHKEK
K-Ras G13C, sequence (P62937 whole entry): as the sequence (P62937 whole entry) above
KRAS G13D, sequence (P01116-2 other isoform, or with tags, fused parts or gaps G13D): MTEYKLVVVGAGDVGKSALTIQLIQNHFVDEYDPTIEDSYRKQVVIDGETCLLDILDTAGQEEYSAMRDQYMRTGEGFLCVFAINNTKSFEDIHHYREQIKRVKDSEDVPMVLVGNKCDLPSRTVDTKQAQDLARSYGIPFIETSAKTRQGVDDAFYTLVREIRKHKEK
KRAS G13D, sequence (P62937 whole entry): as the sequence (P62937 whole entry) above
NRAS G12C, sequence (P01111 whole entry G12C): as the sequence (P01111 whole entry) above, with G12C counted along it
NRAS G12C, sequence (P62937 whole entry): as the sequence (P62937 whole entry) above
KRAS Q61H, sequence (P01116-2 other isoform, or with tags, fused parts or gaps Q61H): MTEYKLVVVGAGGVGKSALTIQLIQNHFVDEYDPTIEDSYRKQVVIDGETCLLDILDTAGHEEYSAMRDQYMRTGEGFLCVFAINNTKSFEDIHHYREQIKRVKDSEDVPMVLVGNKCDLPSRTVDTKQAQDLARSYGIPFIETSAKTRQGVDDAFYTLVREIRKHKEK
KRAS Q61H, sequence (P62937 whole entry): as the sequence (P62937 whole entry) above
KRAS G12V, sequence (P01116-2 other isoform, or with tags, fused parts or gaps G12V): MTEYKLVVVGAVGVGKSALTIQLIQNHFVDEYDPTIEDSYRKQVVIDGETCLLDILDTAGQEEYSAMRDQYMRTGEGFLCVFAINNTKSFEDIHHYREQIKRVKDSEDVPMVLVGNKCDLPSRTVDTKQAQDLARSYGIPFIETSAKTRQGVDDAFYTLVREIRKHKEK
KRAS G12V, sequence (P62937 whole entry): as the sequence (P62937 whole entry) above

For C=CC(=O)N1C[C@@H](C)N(C(=O)N(C)[C@H](C(=O)N[C@H]2Cc3nc(cs3)-c3ccc4c(c3)c(c(-c3cccnc3[C@H](C)OC)n4CC)CC(C)(C)COC(=O)[C@@H]3CCCN(N3)C2=O)C(C)C)[C@@H](C)C1 (atropisomer, axis not shown) [Example A387], the IC50 [1] was 0.01 to 0.1 µM, the EC50 [2] was < 5 µM and the IC50 [3] was 0.1 to 1 µM. The IC50 [4] was 0.01 to 0.1 µM, the IC50 [5] was 0.01 to 0.1 µM and the IC50 [6] was 0.1 to 1 µM. It also gave an IC50 [7] of 0.1 to 1 µM.

C=CC(=O)N1CC2(CCN(C(=O)N(C)[C@H](C(=O)N[C@H]3Cc4nc(cs4)-c4ccc5c(c4)c(c(-c4cccnc4[C@H](C)OC)n5CC)CC(C)(C)COC(=O)[C@@H]4CCCN(N4)C3=O)C(C)C)CC2)C1 (atropisomer, axis not shown) [Example A394] was tested, and the IC50 [1] was 0.1 to 1 µM, the EC50 [2] was < 5 µM and the IC50 [3] was 0.1 to 1 µM. It also gave an IC50 [4] of 0.01 to 0.1 µM, an IC50 [5] of 0.01 to 0.1 µM and an IC50 [6] of 0.01 to 0.1 µM. It also gave an IC50 [7] of 0.1 to 1 µM.

In the case of C=CC(=O)N1CCN(C(=O)N(C)[C@H](C(=O)N[C@H]2Cc3nc(cs3)-c3ccc4c(c3)c(c(-c3cccnc3[C@H](C)OC)n4CC)CC(C)(C)COC(=O)[C@@H]3CCCN(N3)C2=O)C(C)C)CC12CC2 (atropisomer, axis not shown) [Example A417], the IC50 [1] is reported as 0.01 to 0.1 µM, the EC50 [2] is reported as < 5 µM and the IC50 [3] is reported as 0.1 to 1 µM. The IC50 [4] was 0.01 to 0.1 µM, the IC50 [5] was 0.01 to 0.1 µM and the IC50 [6] was 0.01 to 0.1 µM. The IC50 [7] was 0.1 to 1 µM.

For CCn1c(-c2cccnc2[C@H](C)OC)c2c3cc(ccc31)-c1csc(n1)C[C@H](NC(=O)CCOC1CN(C(=O)C#CC(C)(C)N(C)C)C1)C(=O)N1CCC[C@H](N1)C(=O)OCC(C)(C)C2 (atropisomer, axis not shown) [Example A427, 3-((1-(4-(dimethylamino)-4-methylpent-2-ynoyl)azetidin-3-yl)oxy)-N-((6^3S,4S,Z)-1^1-ethyl-1^2-(2-((S)-1-methoxyethyl)pyridin-3-yl)-10,10-dimethyl-5,7-dioxo-6^1,6^2,6^3,6^4,6^5,6^6-hexahydro-1^1H-8-oxa-2(4,2)-thiazola-1(5,3)-indola-6(1,3)-pyridazinacycloundecaphane-4-yl)propanamide], the IC50 [1] was 1 to 10 µM, the EC50 [2] was < 5 µM and the IC50 [3] was 1 to 10 µM. For the same compound, the IC50 [4] was 1 to 10 µM, the IC50 [5] was < 0.01 µM and the IC50 [6] was 1 to 10 µM. For the same compound, the IC50 [7] was 1 to 10 µM.

C=CC(=O)N1CC[C@H](C(=O)N(C)[C@H](C(=O)N[C@H]2Cc3cccc(c3)-c3ccc4c(c3)c(c(-c3cc5c(nc3[C@H](C)OC)CCN(C)C5)n4CC)CC(C)(C)COC(=O)[C@@H]3CCCN(N3)C2=O)C(C)C)C1 (atropisomer, axis not shown) [Example A461] was tested, and the IC50 [1] was 1 to 10 µM, the EC50 [2] was < 5 µM and the IC50 [3] was > 10 µM. It also gave an IC50 [4] of 1 to 10 µM, an IC50 [5] of 0.1 to 1 µM and an IC50 [6] of 1 to 10 µM. The IC50 [7] was 1 to 10 µM.

In the case of C=CC(=O)N(C)C1CN(C(=O)N(C)[C@H](C(=O)N[C@H]2Cc3nc(cs3)-c3ccc4c(c3)c(c(-c3cccnc3[C@H](C)OC)n4CC)CC(C)(C)COC(=O)[C@@H]3CCCN(N3)C2=O)C(C)C)C1 (atropisomer, axis not shown) [Example A463], the IC50 [1] is reported as 0.1 to 1 µM, the EC50 [2] is reported as < 5 µM and the IC50 [3] is reported as 0.1 to 1 µM. It also gave an IC50 [4] of 0.01 to 0.1 µM, an IC50 [5] of 0.01 to 0.1 µM and an IC50 [6] of 0.1 to 1 µM. It also gave an IC50 [7] of 0.1 to 1 µM.

C=CC(=O)N1CC[C@H](C(=O)N(C)[C@H](C(=O)N[C@H]2Cc3nc(cs3)-c3ccc4c(c3)c(c(-c3cc5c(nc3[C@H](C)OC)CCN(C)C5)n4CC)CC(C)(C)COC(=O)[C@@H]3CCCN(N3)C2=O)C(C)C)C1 (atropisomer, axis not shown) [Example A472] was tested, and the IC50 [1] was 1 to 10 µM, the EC50 [2] was < 5 µM and the IC50 [3] was 1 to 10 µM. For the same compound, the IC50 [4] was 1 to 10 µM, the IC50 [5] was 0.1 to 1 µM and the IC50 [6] was 1 to 10 µM. The IC50 [7] was 1 to 10 µM.

With C=CC(=O)N1CC[C@H](C(=O)N(C)[C@H](C(=O)N[C@H]2Cc3cc(C)cc(c3)-c3ccc4c(c3)c(c(-c3cccnc3[C@H](C)OC)n4CC)CC(C)(C)COC(=O)[C@@H]3CCCN(N3)C2=O)C(C)C)C1 (atropisomer, axis not shown) [Example A498] the IC50 [1] was 1 to 10 µM, the EC50 [2] was < 5 µM and the IC50 [3] was > 10 µM. The IC50 [4] was 1 to 10 µM, the IC50 [5] was 0.1 to 1 µM and the IC50 [6] was 1 to 10 µM. The IC50 [7] was 1 to 10 µM.

In the case of C=CC(=O)N1CC[C@H](C(=O)N(C)[C@H](C(=O)N[C@H]2Cc3cccc(c3)-c3ccc4c(c3)c(c(-c3cccnc3[C@H](C)OC)n4CC#CC)CC(C)(C)COC(=O)[C@@H]3CCCN(N3)C2=O)C(C)C)C1 (atropisomer, axis not shown) [Example A531], the IC50 [1] is reported as 1 to 10 µM, the EC50 [2] is reported as < 5 µM and the IC50 [3] is reported as > 10 µM. The IC50 [4] was 1 to 10 µM, the IC50 [5] was 0.1 to 1 µM and the IC50 [6] was 1 to 10 µM. The IC50 [7] was 1 to 10 µM.
